Experiment [1] concerns the target 72 kDa type IV collagenase (Homo sapiens, UniProt P08253). The experiment can be described thus: (§1) Activity Assay: Stock solution of substrate (Mca-Lys-Pro-Leu-Gly-Leu-Dpa-Ala-Arg-NH2) was prepared in DMSO at a concentration of 6 mM. Assays were performed in an assay buffer (50 mM Tris pH 7.5, 300 mM NaCl, 10 uM ZnSO4, 5 mM CaCl2, 0.005% Brij-35). The final DMSO concentration in all assays was 1.0%. […] The assays were carried out at 37° C. The fluorescence changes, resulting from the substrate cleavage, were detected using excitation at 340 nm and emission wavelength of 405 nm using a Wallac 1420 Microplate Reader. The reaction mixtures were preincubated with the inhibitors for 30 minutes. The reactions were started by the addition of MMP substrate, and the fluorescence intensity changes were measured after 60 minutes. The obtained fluorescence values were normalized and % inhibition values calculated. Dose response curves were determined from 6 concentration points using three fold dilution steps, each concentration point was determined in dupllicate. IC50 values were calculated from the dose response curves.

In experiment [2] the target is T1, Interstitial collagenase (Homo sapiens, UniProt P03956).
T1 sequence (P03956 whole entry): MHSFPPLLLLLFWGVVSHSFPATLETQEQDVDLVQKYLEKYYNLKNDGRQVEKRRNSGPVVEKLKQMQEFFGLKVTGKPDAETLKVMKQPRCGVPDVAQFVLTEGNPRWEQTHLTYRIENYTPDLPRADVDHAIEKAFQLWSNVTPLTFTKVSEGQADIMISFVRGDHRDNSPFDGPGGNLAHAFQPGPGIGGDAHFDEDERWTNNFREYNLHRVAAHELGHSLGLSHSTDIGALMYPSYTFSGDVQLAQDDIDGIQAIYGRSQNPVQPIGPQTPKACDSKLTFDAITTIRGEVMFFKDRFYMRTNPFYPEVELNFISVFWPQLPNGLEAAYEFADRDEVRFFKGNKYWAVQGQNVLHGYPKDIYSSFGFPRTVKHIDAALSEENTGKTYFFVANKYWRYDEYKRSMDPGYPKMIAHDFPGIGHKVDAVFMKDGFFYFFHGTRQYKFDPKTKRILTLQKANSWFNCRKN
The description is as §1.

Experiment [3] has as its target Matrix metalloproteinase-9 (Homo sapiens, UniProt P14780). The experiment is described as §1.
Experiment [4] has as its target Collagenase 3 (Homo sapiens, UniProt P45452). Described as §1, with “The fluorescence changes, resulting from the substrate cleavage, were detected using excitation at 340 nm and emission wavelength of 405 nm using a Wallac 1420 Microplate Reader.” left out.

Matrix metalloproteinase-9, sequence (P14780 whole entry): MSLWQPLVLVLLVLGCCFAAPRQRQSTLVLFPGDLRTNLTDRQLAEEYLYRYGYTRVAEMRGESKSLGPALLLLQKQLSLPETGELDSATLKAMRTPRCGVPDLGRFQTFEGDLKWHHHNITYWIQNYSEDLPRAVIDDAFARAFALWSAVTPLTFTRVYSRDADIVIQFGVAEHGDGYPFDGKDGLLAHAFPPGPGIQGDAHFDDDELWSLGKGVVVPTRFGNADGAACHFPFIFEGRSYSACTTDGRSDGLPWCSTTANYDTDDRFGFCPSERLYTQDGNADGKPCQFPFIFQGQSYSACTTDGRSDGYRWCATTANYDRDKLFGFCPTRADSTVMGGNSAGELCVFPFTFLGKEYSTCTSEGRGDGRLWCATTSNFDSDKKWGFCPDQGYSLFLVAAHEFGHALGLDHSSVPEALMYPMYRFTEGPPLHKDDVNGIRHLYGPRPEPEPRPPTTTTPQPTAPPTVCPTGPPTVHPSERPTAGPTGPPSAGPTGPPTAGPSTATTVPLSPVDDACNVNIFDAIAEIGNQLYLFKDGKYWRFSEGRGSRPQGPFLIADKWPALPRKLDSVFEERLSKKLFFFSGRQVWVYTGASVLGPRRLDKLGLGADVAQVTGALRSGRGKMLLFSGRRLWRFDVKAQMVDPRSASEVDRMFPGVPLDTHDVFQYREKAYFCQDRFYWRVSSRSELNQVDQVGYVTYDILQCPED
72 kDa type IV collagenase, sequence (P08253 whole entry): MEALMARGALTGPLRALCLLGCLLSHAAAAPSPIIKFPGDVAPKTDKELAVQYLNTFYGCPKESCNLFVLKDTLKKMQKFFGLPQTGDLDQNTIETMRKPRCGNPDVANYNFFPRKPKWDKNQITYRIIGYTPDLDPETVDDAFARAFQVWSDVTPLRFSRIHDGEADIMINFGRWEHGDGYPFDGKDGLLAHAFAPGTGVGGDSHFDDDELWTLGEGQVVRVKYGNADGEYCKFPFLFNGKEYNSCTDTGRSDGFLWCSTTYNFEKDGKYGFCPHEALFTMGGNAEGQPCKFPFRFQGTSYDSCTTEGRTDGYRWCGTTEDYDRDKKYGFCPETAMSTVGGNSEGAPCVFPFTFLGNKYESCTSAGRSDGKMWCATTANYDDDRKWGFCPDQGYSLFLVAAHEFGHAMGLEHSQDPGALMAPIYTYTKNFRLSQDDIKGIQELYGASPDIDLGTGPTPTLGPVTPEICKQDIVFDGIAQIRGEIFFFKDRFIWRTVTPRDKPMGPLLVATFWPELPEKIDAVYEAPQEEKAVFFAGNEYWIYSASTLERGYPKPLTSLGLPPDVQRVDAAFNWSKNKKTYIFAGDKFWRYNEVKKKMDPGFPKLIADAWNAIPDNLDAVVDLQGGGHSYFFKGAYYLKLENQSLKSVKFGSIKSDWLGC

As to `CCOC(=O)c1csc(CN(Cc2ccc(F)cc2)Cc2ccc(OCc3ccccc3)cc2)n1`, the IC50 (as a rule, the concentration at which inhibition is half-maximal) was more than 500 µM in experiment [1], 280 µM in experiment [2], 140 µM in experiment [3] and 27 µM in experiment [4].
Regarding `O=C(O)c1csc(CN(Cc2ccc(OCc3ccccc3)cc2)CC(c2ccccc2)c2ccccc2)n1`, the IC50 was 26 µM in experiment [1], 10 µM in experiment [3] and 1.76 µM in experiment [4].

The record behind these values is ChEMBL document CHEMBL5725232, “Inhibitors of matrix metalloproteinases” (2016).
